Inconclusive results and toxic doses are left out. Rule as the data show it: active = T/C of 150% or more; inactive = T/C below 125%.
System: L1210 leukemia ip in BDF1 mice, survival T/C
Assay: NCI In Vivo Anticancer Drug Screen. Data for tumor model L1210 Leukemia (intraperitoneal) in B6D2F1 (BDF1) mice
Conditions: endpoint: mean survival time, higher = longer survival
Procedure, shortened: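 Tumor was transplanted into mice, which were then dosed with test compound or vehicle alone. Survival was recorded for each group, and the treated figure was expressed relative to the control figure.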

[1] = dose: 100.0 mg/kg/injection, schedule: Q01DX001 (ip), vehicle: carboxymethylcellulose (CMC)
[2] = dose: 200.0 mg/kg/injection, schedule: Q01DX001 (ip), vehicle: carboxymethylcellulose (CMC)
[3] = dose: 400.0 mg/kg/injection, schedule: Q01DX001 (ip), vehicle: carboxymethylcellulose (CMC)
[4] = dose: 50.0 mg/kg/injection, schedule: Q04DX003 (ip), vehicle: saline
[5] = dose: 100.0 mg/kg/injection, schedule: Q04DX003 (ip), vehicle: saline
[6] = dose: 200.0 mg/kg/injection, schedule: Q04DX003 (ip), vehicle: saline
[7] = dose: 50.0 mg/kg/injection, schedule: Q01DX001 (ip), vehicle: saline
[8] = dose: 100.0 mg/kg/injection, schedule: Q01DX001 (ip), vehicle: saline
[9] = dose: 100.0 mg/kg/injection, schedule: Q01DX009 (ip), vehicle: saline with Tween-80
[10] = dose: 200.0 mg/kg/injection, schedule: Q01DX001 (ip), vehicle: saline
[11] = dose: 200.0 mg/kg/injection, schedule: Q01DX009 (ip), vehicle: saline with Tween-80
[12] = dose: 100.0 mg/kg/injection, schedule: Q04DX003 (ip), vehicle: saline with Tween-80
[13] = dose: 200.0 mg/kg/injection, schedule: Q04DX003 (ip), vehicle: saline with Tween-80
[14] = dose: 400.0 mg/kg/injection, schedule: Q01DX009 (ip), vehicle: saline with Tween-80
[15] = dose: 400.0 mg/kg/injection, schedule: Q04DX003 (ip), vehicle: saline with Tween-80
[16] = dose: 400.0 mg/kg/injection, schedule: Q04DX003 (ip), vehicle: saline
[17] = dose: 100.0 mg/kg/injection, schedule: Q01DX001 (ip), vehicle: Klucel (hydroxypropylcellulose) (HPC)
[18] = dose: 100.0 mg/kg/injection, schedule: Q01DX009 (ip), vehicle: Klucel (hydroxypropylcellulose) (HPC)
[19] = dose: 100.0 mg/kg/injection, schedule: Q04DX003 (ip), vehicle: Klucel (hydroxypropylcellulose) (HPC)
[20] = dose: 200.0 mg/kg/injection, schedule: Q01DX001 (ip), vehicle: Klucel (hydroxypropylcellulose) (HPC)
[21] = dose: 200.0 mg/kg/injection, schedule: Q01DX009 (ip), vehicle: Klucel (hydroxypropylcellulose) (HPC)
[22] = dose: 200.0 mg/kg/injection, schedule: Q04DX003 (ip), vehicle: Klucel (hydroxypropylcellulose) (HPC)
[23] = dose: 400.0 mg/kg/injection, schedule: Q01DX001 (ip), vehicle: Klucel (hydroxypropylcellulose) (HPC)
[24] = dose: 400.0 mg/kg/injection, schedule: Q01DX009 (ip), vehicle: Klucel (hydroxypropylcellulose) (HPC)
[25] = dose: 400.0 mg/kg/injection, schedule: Q04DX003 (ip), vehicle: Klucel (hydroxypropylcellulose) (HPC)
[26] = dose: 12.5 mg/kg/injection, schedule: Q01DX009 (ip), vehicle: saline
[27] = dose: 25.0 mg/kg/injection, schedule: Q01DX009 (ip), vehicle: saline
[28] = dose: 50.0 mg/kg/injection, schedule: Q01DX009 (ip), vehicle: saline
[29] = dose: 100.0 mg/kg/injection, schedule: Q04DX002 (ip), vehicle: Klucel (hydroxypropylcellulose) (HPC)
[30] = dose: 200.0 mg/kg/injection, schedule: Q04DX002 (ip), vehicle: Klucel (hydroxypropylcellulose) (HPC)
[31] = dose: 400.0 mg/kg/injection, schedule: Q04DX002 (ip), vehicle: Klucel (hydroxypropylcellulose) (HPC)
[32] = dose: 100.0 mg/kg/injection, schedule: Q01DX009 (ip), vehicle: gum acacia
[33] = dose: 200.0 mg/kg/injection, schedule: Q01DX009 (ip), vehicle: gum acacia

Measured: T/C

Nc1cc2c(cc1Br)[nH]c(=O)c1ccccc12
inactive: [1] 98 % of control | [2] 96 % of control | [3] 93 % of control

CC(=O)N1CCCC(=O)CCCCCCC1=O
inactive: [4] 95 % of control | [5] 103 % of control | [6] 88 % of control

O=c1[nH]c(Cc2ccccc2)c(Br)c(=O)[nH]1
inactive: [7] 102 % of control | [8] 100 % of control | [9] 104 % of control | dose: 100.0 mg/kg/injection, schedule: Q## X009 (ip), vehicle: saline with Tween-80 104 % of control | [10] 100 % of control | [11] 92 % of control | dose: 200.0 mg/kg/injection, schedule: Q## X009 (ip), vehicle: saline with Tween-80 92 % of control | dose: 400.0 mg/kg/injection, schedule: Q01DX001 (ip), vehicle: saline 94 % of control

COC(=O)C(O)c1cccc(OC)c1 (configuration not stated)
inactive: [9] 96 % of control | [12] 107 % of control | [11] 93 % of control | [13] 96 % of control | [14] 104 % of control | [15] 105 % of control

NC(=O)CNCCS(=O)(=O)O
inactive: dose: 100.0 mg/kg/injection, schedule: Q01DX009 (ip), vehicle: saline 101 % of control | [5] 97 % of control | dose: 200.0 mg/kg/injection, schedule: Q01DX009 (ip), vehicle: saline 107 % of control | [6] 97 % of control | dose: 400.0 mg/kg/injection, schedule: Q01DX009 (ip), vehicle: saline 101 % of control | [16] 100 % of control

O=[N+]([O-])c1ccc(O)c(C2N(Cc3ccc(N(CCCl)CCCl)cc3)CCCN2Cc2ccc(N(CCCl)CCCl)cc2)c1
inactive: dose: 50.0 mg/kg/injection, schedule: Q01DX001 (ip), vehicle: carboxymethylcellulose (CMC) 109 % of control | [17] 93 % of control | [1] 109 % of control | [18] 93 % of control | [19] 103 % of control | [20] 95 % of control | [2] 118 % of control | [21] 98 % of control | [22] 97 % of control | [23] 95 % of control | [24] 94 % of control | [25] 95 % of control

O=C(NCN1C(=O)c2ccccc2C1=O)NCN1C(=O)c2ccccc2C1=O
inactive: [18] 95 % of control | [21] 102 % of control | [24] 92 % of control

COc1cc([N+](=O)[O-])c(Cl)cc1NS(=O)(=O)c1ccc(C)cc1
inactive: [17] 98 % of control | [20] 95 % of control | [23] 90 % of control

O=[N+]([O-])c1ccc(C#[C][Hg][C]#Cc2ccc([N+](=O)[O-])cc2)cc1
inactive: [5] 95 % of control | [6] 91 % of control | [16] 98 % of control

CSC1SCCCS1
inactive: dose: 12.5 mg/kg/injection, schedule: Q04DX002 (ip), vehicle: saline with Tween-80 92 % of control | dose: 25.0 mg/kg/injection, schedule: Q04DX002 (ip), vehicle: saline with Tween-80 98 % of control | dose: 50.0 mg/kg/injection, schedule: Q04DX002 (ip), vehicle: saline with Tween-80 88 % of control

CN(C)CC(CN1c2ccccc2Sc2ccccc21)N(C)C (configuration not stated)
inactive: dose: 6.25 mg/kg/injection, schedule: Q01DX009 (ip), vehicle: saline 94 % of control | [26] 105 % of control | [27] 92 % of control | dose: 25.0 mg/kg/injection, schedule: Q04DX003 (ip), vehicle: saline 96 % of control | [28] 101 % of control | [4] 93 % of control | [5] 90 % of control

Cc1ccc(S/C(=N\O)C(C)C)cc1
inactive: [29] 108 % of control | [30] 92 % of control | [31] 110 % of control

CCCCOP(OCCCC)Oc1ccccc1
inactive: dose: 50.0 mg/kg/injection, schedule: Q01DX009 (ip), vehicle: saline with Tween-80 89 % of control | [9] 89 % of control | [12] 97 % of control | [11] 100 % of control | [13] 96 % of control | [15] 103 % of control

C/C=C/C[P+](CC)(c1ccccc1)c1ccccc1
inactive: dose: 3.13 mg/kg/injection, schedule: Q01DX009 (ip), vehicle: saline 89 % of control

Cc1nnc2c3ccccc3ccn12
inactive: [7] 101 % of control | [8] 101 % of control | [10] 103 % of control

COc1ccc([N+](=O)[O-])cc1Br
inactive: [9] 100 % of control | [11] 96 % of control | [14] 98 % of control

CCN(C(=S)c1ccc(Cl)cc1)c1cccc(C)c1
inactive: [17] 103 % of control | [19] 94 % of control | [20] 99 % of control | [22] 103 % of control | [23] 94 % of control | [25] 100 % of control

Cc1ccc(S(=O)(=O)N/N=C/C=C/C=N/NS(=O)(=O)c2ccc(C)cc2)cc1
inactive: [29] 97 % of control | [30] 103 % of control | [31] 94 % of control

CC(C)c1ccc2c(c1)CCC1C(CN=C(N)CSS(=O)(=O)O)CCCC21C (configuration not stated)
inactive: dose: 75.0 mg/kg/injection, schedule: Q01DX001 (ip), vehicle: saline with Tween-80 95 % of control | dose: 150.0 mg/kg/injection, schedule: Q01DX001 (ip), vehicle: saline with Tween-80 102 % of control

O=C(CNC(=O)Nc1ccc(Cl)c(Cl)c1)N/N=C/c1ccc(F)cc1
inactive: [9] 98 % of control | [11] 96 % of control | [14] 98 % of control

[N-]=[N+]=NC(c1ccccc1)S(=O)c1ccccc1 (configuration not stated)
inactive: [29] 90 % of control | [30] 108 % of control

CC(C)(C(=Nc1ccccc1)N1CCCCC1)c1ccccc1
inactive: dose: 75.0 mg/kg/injection, schedule: Q01DX001 (ip), vehicle: saline 97 % of control | dose: 150.0 mg/kg/injection, schedule: Q01DX001 (ip), vehicle: saline 94 % of control | dose: 300.0 mg/kg/injection, schedule: Q01DX001 (ip), vehicle: saline 96 % of control

CC1=CC(C)(C)NC(=S)N1CCO
inactive: dose: 74.0 mg/kg/injection, schedule: Q01DX Z (ip), vehicle: methylcellulose (MC) 91 % of control | [29] 104 % of control | [30] 107 % of control

Cc1nn2c(C(=O)O)nnc2s1
inactive: [1] 93 % of control | [2] 98 % of control | [3] 93 % of control

O=S(=O)(N=C1C=CC(=NS(=O)(=O)c2ccccc2)C=C1)c1ccccc1
inactive: [32] 98 % of control | dose: 100.0 mg/kg/injection, schedule: Q04DX003 (ip), vehicle: gum acacia 98 % of control | [33] 97 % of control | dose: 200.0 mg/kg/injection, schedule: Q04DX003 (ip), vehicle: gum acacia 98 % of control | dose: 400.0 mg/kg/injection, schedule: Q04DX003 (ip), vehicle: gum acacia 95 % of control

CC1CCN(C(=S)[S-])CC1.CC1CCN(C(=S)[S-])CC1.[Zn]
inactive: [26] 111 % of control | [27] 107 % of control | [28] 100 % of control | [5] 103 % of control

CCCCCCC(C)OC(=O)CCl (configuration not stated)
inactive: [12] 102 % of control | [13] 104 % of control | [15] 109 % of control

O=C(O)Cc1ccccc1Cl
inactive: [32] 100 % of control | [33] 96 % of control

Reference: PubChem BioAssay AID248 (DTP/NCI, 2004)
